Test results reported in patent US20080070938A1, “Medicinal composition for mitigating blood lipid or lowering blood homocysteine” (SANKYO COMPANY, LIMITED, priority 2002, published 2008).

Tests used:
Male Beagle dogs [1] = test: Test Example 1: serum lipids (total cholesterol, LDL, triglyceride) after 11 days of oral dosing; assay type: in vivo; conditions: oral once daily, Pyridoxine hydrochloride 50 mg/Kg, relative value, pre-treatment average = 100, mean of 5 dogs
Description: Pravastatin sodium manufactured at Sankyo Co., Ltd. was used. Simvastatin and atorvastatin synthesized at Chemtech Labo., Inc. were used.
The administration period was 11 days.
Approximately 10 mL of blood was collected from the cephalic vein of each dog on -14 and -7 day (the 1st and the 2nd week prior to administration) as well as 4, 8, and 12 days after administration.
The collected blood was placed in a test tube and allowed to stand at room temperature for 30 min to 1 hour. Then the blood was centrifuged (approximately 1,600 g, for 10 min) and the resultant serum obtained was used for assays.
Total cholesterol content was assayed by enzymatic assay method, while HDL, LDL, and triglyceride were determined by homogeneous method, chemically modified method, and enzymatic techniques, respectively. Clinical Laboratory System (TBA-120FR, Toshiba Medical Systems Corporation) was used in all of these determinations.
Relative values of various levels of serum lipids in animals treated with each dose of pyridoxine hydrochloride, pravastatin sodium, simvastatin, or atorvastatin calcium alone as well as the medicinal compositions described above were calculated against each converted average value calculated from that determined 2 weeks and 1 week before the treatment into 100.

[2] = tested on: patients with cardiovascular diseases; conditions: 6 successive weeks; patients with cardiovascular diseases (3 atorvastatin, 4 simvastatin); cited from earlier work
Male Beagle dogs [3] = test: Test Example 2: blood homocysteine levels (HPLC) after 11 days of oral dosing; conditions: oral once daily, relative value, pre-treatment average = 100, mean of 5 dogs
Description: The required amount of the test substance calculated based on the body weight of the test animals was weighed and put in gelatin capsules (TORPAC Inc., ½ oz). After filling up, the capsules were placed in a box divided up for every animal and stored under freezing until use.
The capsules filled up with the test substance were orally administered to the test animals once daily via an oral gavage between 9:00-12:30. The test animals were fasted for 2-3 hrs prior to each administration. The administration period was 11 days.
Approximately 10 mL of blood was collected from the cephalic vein of each dog on -14 and -7 day (the 1st and the 2nd week prior to administration) as well as 4, 8, and 12 days after administration. The animals were fasted for approximately 18 hrs before collection of the blood.
Blood homocysteine levels were determined by HPLC method used conventionally in current clinical examination.
Relative values of blood homocysteine levels in animals treated with each dose of atorvastatin calcium or pyridoxine hydrochloride alone as well as the medicinal compositions of atorvastatin calcium plus pyridoxine hydrochloride were calculated against each converted average value calculated from that determined 2 weeks and 1 week before the treatment into 100.
The values indicate average results calculated from 5 dogs per a group.

patients = conditions: treated for one year; 20,705 patients; placebo control group 1.9% decrease; cited from earlier work
[4] = 4 Days after treatment, Simvastatin 1 mg/Kg
[5] = 8 Days after treatment, Simvastatin 1 mg/Kg
[6] = 12 Days after treatment, Simvastatin 1 mg/Kg
[7] = 4 Days after treatment, Pravastatin sodium 2 mg/Kg
[8] = 8 Days after treatment, Pravastatin sodium 2 mg/Kg
[9] = 12 Days after treatment, Pravastatin sodium 2 mg/Kg
[10] = 4 Days after treatment, Atorvastatin calcium 2 mg/Kg and/or Pyridoxine hydrochloride 5 mg/Kg
[11] = 8 Days after treatment, Atorvastatin calcium 2 mg/Kg and/or Pyridoxine hydrochloride 5 mg/Kg
[12] = 12 Days after treatment, Atorvastatin calcium 2 mg/Kg and/or Pyridoxine hydrochloride 5 mg/Kg
[13] = 4 Days after treatment, Atorvastatin calcium 2 mg/Kg
[14] = 8 Days after treatment, Atorvastatin calcium 2 mg/Kg
[15] = 12 Days after treatment, Atorvastatin calcium 2 mg/Kg

Structure (SMILES)	Percent changes of blood LDL levels (Male Beagle dogs [1]; [4]) [%]	Percent changes of blood total cholesterol levels (Male Beagle dogs [1]; [4]) [%]	Percent changes of blood triglyceride levels (Male Beagle dogs [1]; [4]) [%]	Percent changes of blood LDL levels (Male Beagle dogs [1]; [5]) [%]	Percent changes of blood total cholesterol levels (Male Beagle dogs [1]; [5]) [%]	Percent changes of blood triglyceride levels (Male Beagle dogs [1]; [5]) [%]	Percent changes of blood LDL levels (Male Beagle dogs [1]; [6]) [%]	Percent changes of blood total cholesterol levels (Male Beagle dogs [1]; [6]) [%]	Percent changes of blood triglyceride levels (Male Beagle dogs [1]; [6]) [%]	blood homocysteine levels (in words) [2]	Percent changes of blood LDL levels (Male Beagle dogs [1]; [7]) [%]	Percent changes of blood LDL levels (Male Beagle dogs [1]; [8]) [%]	Percent changes of blood LDL levels (Male Beagle dogs [1]; [9]) [%]	Percent changes of blood homocysteine levels (Male Beagle dogs [3]; [10]) [%]	Percent changes of blood homocysteine levels (Male Beagle dogs [3]; [11]) [%]	Percent changes of blood homocysteine levels (Male Beagle dogs [3]; [12]) [%]	Percent changes of blood LDL levels (Male Beagle dogs [1]; [13]) [%]	Percent changes of blood triglyceride levels (Male Beagle dogs [1]; [13]) [%]	Percent changes of blood LDL levels (Male Beagle dogs [1]; [14]) [%]	Percent changes of blood triglyceride levels (Male Beagle dogs [1]; [14]) [%]	also measured
CCC(C)(C)C(=O)O[C@H]1C[C@@H](C)C=C2C=C[C@H](C)[C@H](CC[C@@H]3C[C@@H](O)CC(=O)O3)[C@H]21 [Simvastatin, (+)-(1S,3R,7S,8S,8aR)-1,2,3,7,8,8a-hexahydro-3,7-dimethyl-8-[2-[(2R,4R)-tetrahydro-4-hydroxy-6-oxo-2H-pyran-2-yl]ethyl]-1-naphthyl 2,2-dimethylbutyrate]	83.9	94.8	66.4	90.4	94.1	85.3	81.3	92.4	82.0	decreased	–	–	–	–	–	–	–	–	–	–	–
CC[C@H](C)C(=O)O[C@H]1C[C@H](O)C=C2C=C[C@H](C)[C@H](CC[C@@H](O)C[C@@H](O)CC(=O)O)[C@H]21 [Pravastatin sodium, (+)-(3R,5R)-3,5-dihydroxy-7-[(1S,2S,6S,8S,8aR)-6-hydroxy-2-methyl-8-[(S)-2-methylbutyryloxy]-1,2,6,7,8,8a-hexahydro-1-naphtyl]heptanoic acid]	–	–	–	–	–	–	–	–	–	–	92.6	91.6	90.4	–	–	–	–	–	–	–	–
CC(C)c1c(C(=O)Nc2ccccc2)c(-c2ccccc2)c(-c2ccc(F)cc2)n1CC[C@H](O)C[C@@H](O)CC(=O)O [Atorvastatin calcium, (3R,5S)-7-[2-(4-fluorophenyl)-5-(1-methylethyl)-3-phenyl-4-phenylaminocarbonyl-1H-pyrrol-1-yl]-3,5-dihydroxyheptanoic acid]	–	–	–	–	–	–	–	–	–	–	–	–	–	107.2	106.3	106.9	82.4	77.2	82.1	86.3	Percent changes of blood LDL levels (Male Beagle dogs [1]; [15]): 83.6%; Percent changes of blood triglyceride levels (Male Beagle dogs [1]; [15]): 86.4%
Cc1ncc(CO)c(CO)c1O.Cl [Pyridoxine hydrochloride]	101.7	98.0	83.8	95.0	93.3	86.7	91.4	90.5	81.2	–	101.7	95.0	91.4	100.0	116.0	109.8	101.7	83.8	95.0	86.7	Percent changes of blood homocysteine levels (Male Beagle dogs [3]; 4 Days after treatment, Pyridoxine hydrochloride 50 mg/Kg alone or with Atorvastatin calcium 2 mg/Kg): 101.4%; Percent changes of blood homocysteine levels (Male Beagle dogs [3]; 8 Days after treatment, Pyridoxine hydrochloride 50 mg/Kg alone or with Atorvastatin calcium 2 mg/Kg): 111.5%; Percent changes of blood homocysteine levels (Male Beagle dogs [3]; 12 Days after treatment, Pyridoxine hydrochloride 50 mg/Kg alone or with Atorvastatin calcium 2 mg/Kg): 103.0%; Percent changes of blood LDL levels (Male Beagle dogs [1]; [15]): 91.4%; Percent changes of blood triglyceride levels (Male Beagle dogs [1]; [15]): 81.2%
CC[C@H](C)C(=O)O[C@H]1C[C@@H](C)C=C2C=C[C@H](C)[C@H](CC[C@@H]3C[C@@H](O)CC(=O)O3)[C@H]21 [lovastatin, (+)-(1S,3R,7S,8S,8aR)-1,2,3,7,8,8a-hexahydro-3,7-dimethyl-8-[2-[(2R,4R)-tetrahydro-4-hydroxy-6-oxo-2H-pyran-2-yl]ethyl]-1-naphth yl(S)-2-methylbutyrate]	–	–	–	–	–	–	–	–	–	–	–	–	–	–	–	–	–	–	–	–	decrease of blood homocysteine levels on average (patients): 3.7%
CC(C)c1c(C(=O)Nc2ccccc2)c(-c2ccccc2)c(-c2ccc(F)cc2)n1CC[C@H](O)C[C@@H](O)CC(=O)O [atorvastatin, (3R,5S)-7-[2-(4-fluorophenyl)-5-(1-methylethyl)-3-phenyl-4-phenylaminocarbonyl-1H-pyrrol-1-yl]-3,5-dihydroxyheptanoic acid]	–	–	–	–	–	–	–	–	–	increased	–	–	–	–	–	–	–	–	–	–	–
